Bridge positions count the residues as written; N and C are the ends. Square brackets hold non-standard residues; d marks the D form. Ends that are not written are not given here. Peptide text beside a SMILES is read from it. Orn = NCCC[C@H](N)C(=O)O
Test system: calcium concentration in the serum
Assay: Test 1: reduction of calcium level in serum after tail vein administration to rats
Format: in vivo, rats of the Wistar strain
Settings: 1 ml/kg tail vein, female Wistar rats
Procedure, shortened: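 Female Wistar rats, six weeks old, were assigned in groups of 4 and given the test peptides through the tail vein at 1 ml/kg. The peptides were dissolved in 1% aqueous sodium acetate (pH 4,0) containing 0.1% BSA. Blood (0.3 ml) was drawn from the neck vein immediately before dosing and at set times afterward. Serum was separated by centrifuging at 3500 rpm for 20 minutes. Calcium was measured on a TBA-380 analyzer with a Wako o-cpc kit, and the percentage reduction in serum calcium was calculated.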

[1] = concentration 83 ng/ml, 0 hour (just before administration)
[2] = concentration 83 ng/ml, 2 hours
[3] = concentration 83 ng/ml, 4 hours
[4] = concentration 83 ng/ml, 6 hours
[5] = concentration 830 ng/ml, 0 hour (just before administration)
[6] = concentration 830 ng/ml, 1 hour
[7] = concentration 830 ng/ml, 2 hours
[8] = concentration 830 ng/ml, 4 hours
[9] = concentration 830 ng/ml, 6 hours

| Molecule | Serum calcium level as percent of pre-dose baseline [1] [%] | Serum calcium level as percent of pre-dose baseline (concentration 83 ng/ml, 1 hour) [%] | Serum calcium level as percent of pre-dose baseline [2] [%] | Serum calcium level as percent of pre-dose baseline [3] [%] | Serum calcium level as percent of pre-dose baseline [4] [%] | Serum calcium level as percent of pre-dose baseline [5] [%] | Serum calcium level as percent of pre-dose baseline [6] [%] | Serum calcium level as percent of pre-dose baseline [7] [%] | Serum calcium level as percent of pre-dose baseline [8] [%] | Serum calcium level as percent of pre-dose baseline [9] [%] | Serum calcium level as percent of pre-dose baseline (concentration 166 ng/ml, 0 hour (just before administration)) [%] | Serum calcium level as percent of pre-dose baseline (concentration 166 ng/ml, 1 hour) [%] | Serum calcium level as percent of pre-dose baseline (concentration 166 ng/ml, 2 hours) [%] | Serum calcium level as percent of pre-dose baseline (concentration 166 ng/ml, 4 hours) [%] | Serum calcium level as percent of pre-dose baseline (concentration 166 ng/ml, 6 hours) [%] |
| --- | --- | --- | --- | --- | --- | --- | --- | --- | --- | --- | --- | --- | --- | --- | --- |
| CC[C@H](C)[C@H](NC(=O)[C@H](C)NC(=O)[C@@H](NC(=O)[C@H](CCC(N)=O)NC(=O)[C@@H]1CCCN1C(=O)[C@H](Cc1ccc(O)cc1)NC(=O)[C@@H](NC(=O)[C@H](CCC(N)=O)NC(=O)[C@H](CC(C)C)NC(=O)[C@H](CCCCN)NC(=O)[C@H](Cc1c[nH]cn1)NC(=O)[C@H](CC(C)C)NC(=O)[C@H](CCC(=O)O)NC(=O)[C@H](CCC(N)=O)NC(=O)[C@H](CO)NC(=O)[C@H](CC(C)C)NC(=O)[C@H](CCCCN)NC(=O)CNC(=O)[C@H](CC(C)C)NC(=O)[C@H](CC(C)C)NC(=O)[C@@H]1CCC(=O)NCCC[C@H](N)C(=O)N[C@@H](CC(N)=O)C(=O)N[C@@H](CC(C)C)C(=O)N[C@@H](CO)C(=O)N[C@@H]([C@@H](C)O)C(=O)N1)[C@@H](C)O)[C@@H](C)O)C(=O)NCC(=O)N[C@H](C(=O)NCC(=O)N[C@@H](C)C(=O)N1CCC[C@H]1C(N)=O)C(C)C [Peptide No. 30] (H-[Orn]NLSTELLGKLSQELHKLQTYPQTAIGVGAP-NH2; lactam 1-6) | 100.0 | 77.2 | 80.7 | 83.2 | 77.7 | 100.0 | 74.0 | 63.8 | 65.4 | 73.9 |  |  |  |  |  |
| AGNLSTAMLGKLSQELHKGQTYPQTAIGVGAP-NH2 [Peptide No. 17] |  |  |  |  |  |  |  |  |  |  | 100.0 | 77.6 | 71.5 | 79.7 | 83.2 |
| CC[C@H](C)[C@H](NC(=O)[C@H](C)NC(=O)[C@@H](NC(=O)[C@H](CCC(N)=O)NC(=O)[C@@H]1CCCN1C(=O)[C@H](Cc1ccc(O)cc1)NC(=O)[C@@H](NC(=O)[C@H](CCC(N)=O)NC(=O)[C@H](CC(C)C)NC(=O)[C@H](CCCCN)NC(=O)[C@H](Cc1c[nH]cn1)NC(=O)[C@H](CC(C)C)NC(=O)[C@H](CCC(=O)O)NC(=O)[C@H](CCC(N)=O)NC(=O)[C@H](CO)NC(=O)[C@H](CC(C)C)NC(=O)[C@H](CCCCN)NC(=O)CNC(=O)[C@H](CC(C)C)NC(=O)[C@@H]1CCCN1C(=O)[C@@H]1CSSC[C@H](N)C(=O)NCC(=O)N[C@@H](CC(N)=O)C(=O)N[C@@H](CC(C)C)C(=O)N[C@@H](CO)C(=O)N[C@@H]([C@@H](C)O)C(=O)N1)[C@@H](C)O)[C@@H](C)O)C(=O)NCC(=O)N[C@H](C(=O)NCC(=O)N[C@@H](C)C(=O)N1CCC[C@H]1C(N)=O)C(C)C [Peptide No. 12] (H-CGNLSTCPLGKLSQELHKLQTYPQTAIGVGAP-NH2; disulfide 1-7) | 100.0 | 88.0 | 92.4 | 83.4 | 84.0 | 109.0 | 77.0 | 86.8 | 85.8 | 88.0 |  |  |  |  |  |
| CC[C@H](C)[C@H](NC(=O)[C@H](C)NC(=O)[C@@H](NC(=O)[C@H](CCC(N)=O)NC(=O)[C@@H]1CCCN1C(=O)[C@H](Cc1ccc(O)cc1)NC(=O)[C@@H](NC(=O)[C@H](Cc1c[nH]cn1)NC(=O)[C@H](Cc1ccccc1)NC(=O)[C@H](CCCCN)NC(=O)[C@H](CC(N)=O)NC(=O)[C@H](CC(C)C)NC(=O)[C@H](CC(=O)O)NC(=O)[C@H](CCC(N)=O)NC(=O)[C@H](CO)NC(=O)[C@H](CC(C)C)NC(=O)[C@H](CCCCN)NC(=O)CNC(=O)[C@H](CC(C)C)NC(=O)[C@H](CC(C)C)NC(=O)[C@@H]1CCCCNC(=O)C[C@H](N)C(=O)N[C@@H](CC(N)=O)C(=O)N[C@@H](CC(C)C)C(=O)N[C@@H](CO)C(=O)N[C@@H]([C@@H](C)O)C(=O)N1)[C@@H](C)O)[C@@H](C)O)C(=O)NCC(=O)N[C@H](C(=O)NCC(=O)N[C@@H](C)C(=O)N1CCC[C@H]1C(N)=O)C(C)C [Peptide No. 31] (H-DNLSTKLLGKLSQDLNKFHTYPQTAIGVGAP-NH2; lactam 1-6) | 100.0 | 79.1 | 72.7 | 77.5 | 74.3 | 100.0 | 74.3 | 65.6 | 57.3 | 49.6 |  |  |  |  |  |
| CC[C@H](C)[C@H](NC(=O)[C@H](C)NC(=O)[C@@H](NC(=O)[C@H](CCC(N)=O)NC(=O)[C@@H]1CCCN1C(=O)[C@H](Cc1ccc(O)cc1)NC(=O)[C@@H](NC(=O)[C@H](CCC(N)=O)NC(=O)CNC(=O)[C@H](CCCCN)NC(=O)[C@H](Cc1c[nH]cn1)NC(=O)[C@H](CC(C)C)NC(=O)[C@H](CCC(=O)O)NC(=O)[C@H](CCC(N)=O)NC(=O)[C@H](CO)NC(=O)[C@H](CC(C)C)NC(=O)[C@H](CCCCN)NC(=O)CNC(=O)[C@H](CC(C)C)NC(=O)[C@H](CCSC)NC(=O)[C@@H]1CSSC[C@H](N)C(=O)NCC(=O)N[C@@H](CC(N)=O)C(=O)N[C@@H](CC(C)C)C(=O)N[C@@H](CO)C(=O)N[C@@H]([C@@H](C)O)C(=O)N1)[C@@H](C)O)[C@@H](C)O)C(=O)NCC(=O)N[C@H](C(=O)NCC(=O)N[C@@H](C)C(=O)N1CCC[C@H]1C(N)=O)C(C)C [Peptide No. 4] (H-CGNLSTCMLGKLSQELHKGQTYPQTAIGVGAP-NH2; disulfide 1-7) |  |  |  |  |  | 100.0 | 90.5 | 92.0 | 95.5 | 86.7 |  |  |  |  |  |
| CC[C@H](C)[C@H](NC(=O)[C@H](C)NC(=O)[C@@H](NC(=O)[C@H](CCC(N)=O)NC(=O)[C@@H]1CCCN1C(=O)[C@H](Cc1ccc(O)cc1)NC(=O)[C@@H](NC(=O)[C@H](CCC(N)=O)NC(=O)[C@H](CC(C)C)NC(=O)[C@H](CCCCN)NC(=O)[C@H](Cc1c[nH]cn1)NC(=O)[C@H](CC(C)C)NC(=O)[C@H](CCC(=O)O)NC(=O)[C@H](CCC(N)=O)NC(=O)[C@H](CO)NC(=O)[C@H](CC(C)C)NC(=O)[C@H](CCCCN)NC(=O)CNC(=O)[C@H](CC(C)C)NC(=O)[C@H](CC(C)C)NC(=O)[C@@H]1CSSC[C@H](N)C(=O)NCC(=O)N[C@@H](CC(N)=O)C(=O)N[C@@H](CC(C)C)C(=O)N[C@@H](CO)C(=O)N[C@@H]([C@@H](C)O)C(=O)N1)[C@@H](C)O)[C@@H](C)O)C(=O)NCC(=O)N[C@H](C(=O)NCC(=O)N[C@@H](C)C(=O)N1CCC[C@H]1C(N)=O)C(C)C [Peptide No. 13] (H-CGNLSTCLLGKLSQELHKLQTYPQTAIGVGAP-NH2; disulfide 1-7) | 100.0 | 68.9 | 70.5 | 84.4 | 86.8 | 100.0 | 71.3 | 62.7 | 58.3 | 61.8 |  |  |  |  |  |
